Measured values published in PMC9736855, “Discovery of 3-Amino-1H-pyrazole-Based Kinase Inhibitors to Illuminate the Understudied PCTAIRE Family” (International Journal of Molecular Sciences, 2022).
Where “and” joins values, the source holds several entries; their conditions need not be identical. Equal entries are not always repeated. Where two headings read alike, the source gives them in different places.

Legend:
AAK1 = biological target: T1, AAK1 (Homo sapiens, UniProt Q2M2I8); assay: DSF; format: binding
T1 construct: purchased in-house DSF panel (SGC Frankfurt)
T1 sequence (Q2M2I8 27-365): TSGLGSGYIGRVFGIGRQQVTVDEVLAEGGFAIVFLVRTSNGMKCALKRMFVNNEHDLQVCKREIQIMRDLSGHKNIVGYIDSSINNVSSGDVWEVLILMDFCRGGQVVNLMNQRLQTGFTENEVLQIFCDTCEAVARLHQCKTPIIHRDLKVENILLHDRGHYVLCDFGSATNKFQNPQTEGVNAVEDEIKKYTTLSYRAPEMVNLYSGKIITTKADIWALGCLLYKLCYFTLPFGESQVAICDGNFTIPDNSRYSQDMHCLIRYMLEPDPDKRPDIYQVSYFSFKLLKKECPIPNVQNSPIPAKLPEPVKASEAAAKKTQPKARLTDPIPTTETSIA
Experimental: (§1) Recombinant protein kinase domains with a concentration of 2 μM were mixed with a 10 μM compound solution in DMSO, 20 mM HEPES, pH 7.5, and 500 mM NaCl. SYPRO Orange (5000×, Invitrogen) was added as a fluorescence probe (1 µl per mL). Subsequently, temperature-dependent protein unfolding profiles were measured, using the QuantStudio™ 5 realtime PCR machine (Thermo Fisher, Waltham, MA, USA). […] The temperature was raised with a step rate of 3 °C per minute. Data points were analyzed with the internal software (Thermal Shift SoftwareTM Version 1.4, Thermo Fisher) using the Boltzmann equation to determine the inflection point of the transition curve [56]. Differences in melting temperature are given as ΔTm values in °C. Measurements were performed in duplicates.

RPS6KA6 = assay: DSF; format: binding
Experimental: as §1

MAPK14 = biological target: T2, MAPK14 (Homo sapiens, UniProt Q16539); assay: DSF; format: binding
T2 construct: purchased in-house DSF panel (SGC Frankfurt)
T2 sequence (Q16539 whole entry): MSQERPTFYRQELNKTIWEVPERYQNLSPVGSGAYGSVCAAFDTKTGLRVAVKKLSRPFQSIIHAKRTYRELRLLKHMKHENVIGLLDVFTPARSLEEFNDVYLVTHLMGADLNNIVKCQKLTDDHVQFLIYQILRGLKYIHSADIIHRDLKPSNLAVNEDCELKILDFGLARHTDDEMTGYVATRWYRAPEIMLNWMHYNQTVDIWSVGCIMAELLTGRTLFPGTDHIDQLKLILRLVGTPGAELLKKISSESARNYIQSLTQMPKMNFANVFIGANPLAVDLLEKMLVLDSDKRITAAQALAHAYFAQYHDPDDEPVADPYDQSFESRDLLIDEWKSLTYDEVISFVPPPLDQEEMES
Experimental: as §1

RPS6KA1 = assay: DSF; format: binding;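 also: compound tested at 10 µM with 2 µM protein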
Experimental: as §1

MAPK10 = biological target: T3, MAPK10 (Homo sapiens, UniProt P53779); assay: DSF; format: binding;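 also: compound tested at 10 µM with 2 µM protein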
T3 construct: purchased in-house DSF panel (SGC Frankfurt)
T3 sequence (P53779 whole entry): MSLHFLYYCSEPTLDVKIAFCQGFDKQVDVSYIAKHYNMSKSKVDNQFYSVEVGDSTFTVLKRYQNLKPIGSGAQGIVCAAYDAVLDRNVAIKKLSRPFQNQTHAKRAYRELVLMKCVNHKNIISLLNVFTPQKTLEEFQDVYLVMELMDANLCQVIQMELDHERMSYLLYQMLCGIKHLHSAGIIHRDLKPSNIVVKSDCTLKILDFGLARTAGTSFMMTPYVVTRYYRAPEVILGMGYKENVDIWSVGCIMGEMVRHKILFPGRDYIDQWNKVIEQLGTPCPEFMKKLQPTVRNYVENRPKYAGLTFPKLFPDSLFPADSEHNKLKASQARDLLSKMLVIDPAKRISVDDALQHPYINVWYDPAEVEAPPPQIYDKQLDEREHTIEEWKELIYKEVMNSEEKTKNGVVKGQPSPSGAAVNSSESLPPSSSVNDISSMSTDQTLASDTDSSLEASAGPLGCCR
Experimental: as §1

CDK16/Cyclin Y = biological target: T4, CDK16/Cyclin Y (Homo sapiens, UniProt Q00536); assay: NanoBRET; format: cell-based
T4 construct: Full-length kinases were obtained as plasmids cloned in frame with a terminal NanoLuc-fusion; CS1810C178 (CCNY); host or cells: HEK293T
T4 sequence (Q00536 whole entry, the tested form may be a part): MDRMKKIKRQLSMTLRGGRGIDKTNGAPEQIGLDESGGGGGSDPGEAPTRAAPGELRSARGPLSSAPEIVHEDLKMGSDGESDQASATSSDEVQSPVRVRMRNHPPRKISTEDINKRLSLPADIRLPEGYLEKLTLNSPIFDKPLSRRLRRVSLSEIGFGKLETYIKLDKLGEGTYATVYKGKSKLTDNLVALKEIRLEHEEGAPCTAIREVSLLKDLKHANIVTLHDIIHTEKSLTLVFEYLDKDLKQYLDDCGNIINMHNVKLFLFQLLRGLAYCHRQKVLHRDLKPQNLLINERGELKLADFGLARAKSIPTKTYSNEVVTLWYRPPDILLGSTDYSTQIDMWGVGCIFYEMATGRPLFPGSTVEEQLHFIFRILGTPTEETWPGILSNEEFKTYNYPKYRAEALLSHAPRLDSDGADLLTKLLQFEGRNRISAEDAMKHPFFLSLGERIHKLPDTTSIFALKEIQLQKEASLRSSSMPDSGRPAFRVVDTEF
T4 sequence (Q8ND76 2-341 partner limits assumed): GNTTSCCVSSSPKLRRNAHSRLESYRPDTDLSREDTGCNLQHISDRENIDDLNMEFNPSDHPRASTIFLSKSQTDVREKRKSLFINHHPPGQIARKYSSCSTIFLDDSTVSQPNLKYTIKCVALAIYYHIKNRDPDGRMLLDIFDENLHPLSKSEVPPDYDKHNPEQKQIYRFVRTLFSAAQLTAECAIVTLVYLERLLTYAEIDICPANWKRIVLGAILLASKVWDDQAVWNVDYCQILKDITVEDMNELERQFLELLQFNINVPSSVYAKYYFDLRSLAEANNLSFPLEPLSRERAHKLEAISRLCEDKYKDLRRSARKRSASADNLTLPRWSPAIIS
Outline: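 HEK293T cells transiently expressing full-length NanoLuc-fused kinase for 20 h, treated with serially diluted inhibitor plus tracer at its KD,app. Equilibrated 2 h at 37 °C/5% CO2 before reading BRET (450/610 nm). EC50 from tracer displacement by normalized 3-parameter fit.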

DYRK2 = biological target: T5, DYRK2 (Homo sapiens, UniProt Q92630); assay: DSF; format: binding
T5 construct: purchased in-house DSF panel (SGC Frankfurt)
T5 sequence (Q92630 1-601): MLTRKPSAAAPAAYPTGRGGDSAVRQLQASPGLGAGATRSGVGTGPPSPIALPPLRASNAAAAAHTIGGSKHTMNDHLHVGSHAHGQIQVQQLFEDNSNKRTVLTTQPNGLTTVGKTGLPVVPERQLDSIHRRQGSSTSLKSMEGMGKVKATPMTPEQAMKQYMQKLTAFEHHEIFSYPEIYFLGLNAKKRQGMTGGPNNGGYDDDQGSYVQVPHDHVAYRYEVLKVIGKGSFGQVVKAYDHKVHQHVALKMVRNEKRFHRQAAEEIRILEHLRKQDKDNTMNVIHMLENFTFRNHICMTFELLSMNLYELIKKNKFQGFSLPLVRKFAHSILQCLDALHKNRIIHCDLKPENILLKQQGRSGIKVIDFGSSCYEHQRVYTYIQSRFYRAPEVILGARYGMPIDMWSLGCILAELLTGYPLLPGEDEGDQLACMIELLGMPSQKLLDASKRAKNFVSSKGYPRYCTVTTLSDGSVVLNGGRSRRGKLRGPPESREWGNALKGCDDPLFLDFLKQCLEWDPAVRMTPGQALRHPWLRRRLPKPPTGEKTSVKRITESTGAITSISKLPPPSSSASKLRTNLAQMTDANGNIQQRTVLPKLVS
Experimental: as §1

DAPK3 = biological target: T6, DAPK3 (Homo sapiens, UniProt O43293); assay: DSF; format: binding
T6 construct: purchased in-house DSF panel (SGC Frankfurt)
T6 sequence (O43293 9-289): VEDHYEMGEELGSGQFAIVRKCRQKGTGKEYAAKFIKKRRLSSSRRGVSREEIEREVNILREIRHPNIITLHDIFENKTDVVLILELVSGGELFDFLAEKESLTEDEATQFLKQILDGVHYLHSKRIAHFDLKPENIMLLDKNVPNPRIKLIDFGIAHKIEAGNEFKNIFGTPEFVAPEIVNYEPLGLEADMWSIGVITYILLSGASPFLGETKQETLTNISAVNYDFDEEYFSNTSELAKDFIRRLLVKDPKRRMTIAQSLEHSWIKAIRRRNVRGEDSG
Experimental: as §1

GSK3B = GSK3B (Homo sapiens, UniProt P49841); assay: DSF; format: binding; parameters: purchased in-house DSF panel (SGC Frankfurt); settings: 10 μM compound
Chain of GSK3B (P49841 35-386): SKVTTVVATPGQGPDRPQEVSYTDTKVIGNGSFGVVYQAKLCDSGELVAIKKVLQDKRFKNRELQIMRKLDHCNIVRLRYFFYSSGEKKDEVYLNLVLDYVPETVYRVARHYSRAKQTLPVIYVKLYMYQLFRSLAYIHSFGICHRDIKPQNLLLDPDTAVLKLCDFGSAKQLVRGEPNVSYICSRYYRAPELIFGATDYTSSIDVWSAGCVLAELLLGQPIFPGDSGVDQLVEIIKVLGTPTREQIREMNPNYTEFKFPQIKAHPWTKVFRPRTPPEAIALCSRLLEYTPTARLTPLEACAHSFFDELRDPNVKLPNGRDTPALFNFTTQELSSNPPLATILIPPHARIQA
Outline: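 Differential scanning fluorimetry follows unfolding of the protein through fluorescence of a dye that depends on folding state. The value is ΔTm, the melting-temperature shift between compound-free and compound-bound protein. Duplicate measurements.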

TAF1 = assay: DSF; format: binding;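 also: compound tested at 10 µM with 2 µM protein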
Experimental: as §1

AKT3 = biological target: T7, AKT3 (Homo sapiens, UniProt Q9Y243); assay: DSF; format: binding
T7 construct: purchased in-house DSF panel (SGC Frankfurt)
T7 sequence (Q9Y243 148-479): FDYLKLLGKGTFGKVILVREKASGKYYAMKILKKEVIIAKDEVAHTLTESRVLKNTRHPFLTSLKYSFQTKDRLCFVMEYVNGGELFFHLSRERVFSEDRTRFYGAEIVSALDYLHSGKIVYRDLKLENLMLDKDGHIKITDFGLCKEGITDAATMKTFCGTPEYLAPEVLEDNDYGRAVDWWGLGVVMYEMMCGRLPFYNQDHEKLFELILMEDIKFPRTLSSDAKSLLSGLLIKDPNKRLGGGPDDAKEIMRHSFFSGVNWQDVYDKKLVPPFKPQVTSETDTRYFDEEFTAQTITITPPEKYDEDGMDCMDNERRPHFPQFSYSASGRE
Experimental: as §1

UKL3 = biological target: T8, UKL3 (Homo sapiens, UniProt Q6PHR2); assay: DSF; format: binding;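 also: compound tested at 10 µM with 2 µM protein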
T8 construct: purchased in-house DSF panel (SGC Frankfurt)
T8 sequence (Q6PHR2 1-279): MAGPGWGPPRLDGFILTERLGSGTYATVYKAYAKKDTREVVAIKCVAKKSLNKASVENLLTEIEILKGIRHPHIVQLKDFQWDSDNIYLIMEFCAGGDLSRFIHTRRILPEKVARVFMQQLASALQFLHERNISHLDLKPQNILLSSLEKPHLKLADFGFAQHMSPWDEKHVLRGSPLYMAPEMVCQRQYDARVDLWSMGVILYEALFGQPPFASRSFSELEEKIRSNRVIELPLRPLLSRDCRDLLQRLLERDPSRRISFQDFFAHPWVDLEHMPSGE
Experimental: as §1

CK2A2 = biological target: T9, CK2A2 (Homo sapiens, UniProt P19784); assay: DSF; format: binding;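 also: compound tested at 10 µM with 2 µM protein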
T9 construct: purchased in-house DSF panel (SGC Frankfurt)
T9 sequence (P19784 whole entry): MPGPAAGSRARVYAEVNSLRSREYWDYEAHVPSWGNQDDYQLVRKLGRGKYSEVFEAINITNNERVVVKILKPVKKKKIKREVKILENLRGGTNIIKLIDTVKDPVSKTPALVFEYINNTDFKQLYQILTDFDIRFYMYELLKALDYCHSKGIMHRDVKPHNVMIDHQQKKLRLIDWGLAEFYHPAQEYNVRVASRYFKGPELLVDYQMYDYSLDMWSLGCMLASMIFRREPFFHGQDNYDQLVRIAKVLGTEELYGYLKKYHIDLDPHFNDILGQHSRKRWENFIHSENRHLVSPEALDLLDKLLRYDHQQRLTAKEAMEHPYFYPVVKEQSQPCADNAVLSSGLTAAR
Experimental: as §1

MAP2K1 = biological target: T10, MAP2K1 (Homo sapiens, UniProt Q02750); assay: DSF; format: binding
T10 construct: purchased in-house DSF panel (SGC Frankfurt)
T10 sequence (Q02750 68-361): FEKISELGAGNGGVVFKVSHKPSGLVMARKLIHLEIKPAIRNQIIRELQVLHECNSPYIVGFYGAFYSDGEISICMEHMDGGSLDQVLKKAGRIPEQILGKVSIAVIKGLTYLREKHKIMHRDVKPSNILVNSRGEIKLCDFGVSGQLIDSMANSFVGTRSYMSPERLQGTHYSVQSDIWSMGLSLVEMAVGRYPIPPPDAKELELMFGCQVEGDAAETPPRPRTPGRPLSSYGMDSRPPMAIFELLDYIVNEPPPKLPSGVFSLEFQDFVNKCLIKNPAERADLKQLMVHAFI
Experimental: as §1

MST4 = biological target: T11, MST4 (Homo sapiens, UniProt Q9P289); assay: DSF; format: binding
T11 construct: purchased in-house DSF panel (SGC Frankfurt)
T11 sequence (Q9P289 1-300): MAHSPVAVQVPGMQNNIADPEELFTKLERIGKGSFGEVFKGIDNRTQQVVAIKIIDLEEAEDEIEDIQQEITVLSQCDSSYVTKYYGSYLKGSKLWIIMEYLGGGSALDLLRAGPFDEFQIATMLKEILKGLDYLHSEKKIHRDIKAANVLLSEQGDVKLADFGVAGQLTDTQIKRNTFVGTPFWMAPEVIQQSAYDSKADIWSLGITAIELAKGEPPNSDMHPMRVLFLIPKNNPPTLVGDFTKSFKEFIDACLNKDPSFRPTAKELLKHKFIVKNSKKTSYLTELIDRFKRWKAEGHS
Experimental: as §1

DYRK1A = biological target: T12, DYRK1A (Homo sapiens, UniProt Q13627); assay: DSF; format: binding
T12 construct: purchased in-house DSF panel (SGC Frankfurt)
Experimental: as §1

GPRK5 = biological target: T13, GPRK5 (Homo sapiens, UniProt P34947); assay: DSF; format: binding
T13 construct: purchased in-house DSF panel (SGC Frankfurt)
T13 sequence (P34947 whole entry): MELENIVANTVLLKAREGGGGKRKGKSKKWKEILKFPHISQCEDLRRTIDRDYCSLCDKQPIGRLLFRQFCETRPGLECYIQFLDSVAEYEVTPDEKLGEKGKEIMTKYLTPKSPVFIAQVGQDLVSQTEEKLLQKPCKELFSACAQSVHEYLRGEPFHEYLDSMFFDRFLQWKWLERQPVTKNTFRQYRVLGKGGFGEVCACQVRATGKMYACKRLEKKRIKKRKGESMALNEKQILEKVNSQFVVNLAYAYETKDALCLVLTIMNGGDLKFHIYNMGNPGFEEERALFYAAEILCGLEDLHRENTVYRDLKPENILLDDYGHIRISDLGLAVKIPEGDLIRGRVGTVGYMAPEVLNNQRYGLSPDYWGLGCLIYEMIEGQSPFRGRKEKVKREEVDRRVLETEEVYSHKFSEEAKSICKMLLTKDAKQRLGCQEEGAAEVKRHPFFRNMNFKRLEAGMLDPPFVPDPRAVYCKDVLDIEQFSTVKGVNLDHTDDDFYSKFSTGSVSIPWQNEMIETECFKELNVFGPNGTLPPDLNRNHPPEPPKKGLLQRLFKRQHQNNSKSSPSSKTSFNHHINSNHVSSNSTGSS
Experimental: as §1

[1] = Figure 7, 11-point dose-response in duplicates, read-out: NanoBRET EC50 ± SEM against CDK16

SMILES | ΔTm AAK1 (AAK1) | ΔTm RPS6KA6 (RPS6KA6) | ΔTm MAPK14 (MAPK14) | ΔTm RPS6KA1 (RPS6KA1) | ΔTm MAPK10 (MAPK10) | EC50 (CDK16/Cyclin Y; [1]) | ΔTm DYRK2 (DYRK2) | ΔTm DAPK3 (DAPK3) | ΔTm at 10 µM (GSK3B) | ΔTm TAF1 (TAF1) | ΔTm AKT3 (AKT3) | ΔTm UKL3 (UKL3) | ΔTm CK2A2 (CK2A2) | ΔTm MAP2K1 (MAP2K1) | ΔTm MST4 (MST4) | ΔTm DYRK1A (DYRK1A) | ΔTm GPRK5 (GPRK5) | EC50 (CDK16/Cyclin Y; CDK family profiling, Table S5, read-out: NanoBRET EC50 ± SEM CDK16/Cyclin Y)
COC(=O)c1cc(Nc2ccnc(NCc3ccc(NC(=O)OC(C)(C)C)cc3)n2)[nH]n1 [21i, methyl 5-((2-((4-((tert-butoxycarbonyl)amino)benzyl)amino)pyrimidin-4-yl)amino)-1H-pyrazole-3-carboxylate] | 2.0 °C | -0.3 °C | -0.6 °C | 1.0 °C | 1.8 °C | 380 nM | 1.1 °C | -0.6 °C | 7.2 °C | 0.2 °C | -0.3 °C | 0.3 °C | 1.3 °C | -0.5 °C | -0.7 °C | 3.4 °C | 0.7 °C | –
CC(C)(C)OC(=O)Nc1ccc(CNc2nccc(Nc3cc(C(=O)OC(C)(C)C)[nH]n3)n2)cc1 [43d, tert-butyl 3-((2-((4-((tert-butoxycarbonyl)amino)benzyl)amino)pyrimidin-4-yl)amino)-1H-pyrazole-5-carboxylate] | 1.0 °C | – | -0.3 °C | 0.2 °C | -1.6 °C | 33 nM and 33.4 nM | 0.8 °C | 0.3 °C | 2.9 °C | 0.0 °C | 0.5 °C | 3.3 °C | 1.1 °C | – | -0.1 °C | 1.8 °C | -1.4 °C | –
COC(=O)c1cc(Nc2ccnc(NCCOCCNC(=O)OC(C)(C)C)n2)[nH]n1 [21d, methyl 5-((2-((2-(2-((tert-butoxycarbonyl)amino)ethoxy)ethyl)amino)pyrimidin-4-yl)amino)-1H-pyrazole-3-carboxylate] | 4.1 °C | -0.3 °C | -0.3 °C | 0.5 °C | 2.9 °C | 1370 ± 306 nM | 2.1 °C | 3.3 °C | 6.2 °C | 0.0 °C | 0.3 °C | 0.9 °C | 1.8 °C | 0.7 °C | 0.7 °C | 1.2 °C | 0.2 °C | –
CC(C)OC(=O)c1cc(Nc2ccnc(NCc3ccc(NC(=O)OC(C)(C)C)cc3)n2)n[nH]1 [42d, isopropyl 3-((2-((4-((tert-butoxycarbonyl)amino)benzyl)amino)pyrimidin-4-yl)amino)-1H-pyrazole-5-carboxylate] | 0.5 °C | – | -0.5 °C | -0.3 °C | -3.0 °C | 44 nM | 0.5 °C | 0.1 °C | 4.7 °C | 0.5 °C | 0.6 °C | 2.3 °C | 1.1 °C | – | 0.1 °C | 0.0 °C | -1.3 °C | –
N#CCc1ccc(Nc2nccc(Nc3cc(C4CC4)[nH]n3)n2)cc1 [compound 1, reference compound] | 13.8 °C | 0.4 °C | 2.5 °C | 5.1 °C | 7.2 °C | – | 11.0 °C | 9.7 °C | 14 °C | 0.1 °C | – | 8.3 °C | 8.5 °C | 1.4 °C | 7.1 °C | 8.2 °C | 5.2 °C | 14.6 ± 5.5 nM
